# Assay results as given in patent publication US11807693B2 (priority 2014, dated 2023).
# Like-named read-outs stand apart in the source and are kept apart here. Starred links: 1 amine or outer side, 2 acyl side, 3 side chain; linkers in the order of their positions; H or OH if unused. Non-standard residues stand in square brackets, D forms with d. Residues, ends and D or L forms follow the SMILES beside them. *: point of attachment. Oic = O=C(O)[C@@H]1C[C@@H]2CCCC[C@@H]2N1; Phe(4-Cl) = N[C@@H](Cc1ccc(Cl)cc1)C(=O)O; Phe(4-F) = N[C@@H](Cc1ccc(F)cc1)C(=O)O; γGlu = O=C(O)[C@H](CCC(=O)[*:2])N[*:1]; d(β3hF) = N[C@@H](CC(=O)O)Cc1ccccc1; NMeR = CN[C@@H](CCCNC(=N)N)C(=O)O; Palmitoyl = CCCCCCCCCCCCCCCC(=O)*; hArg = N=C(N)NCCCC[C@H](N)C(=O)O; αMeF = C[C@](N)(Cc1ccccc1)C(=O)O; dTic = O=C(O)[C@H]1Cc2ccccc2CN1; Cha = N[C@@H](CC1CCCCC1)C(=O)O; αMeL = CC(C)C[C@](C)(N)C(=O)O; β3hP = O=C(O)C[C@@H]1CCCN1; Pip = O=C(O)[C@@H]1CCCCN1; Nle = CCCC[C@H](N)C(=O)O; Orn = NCCC[C@H](N)C(=O)O; AEEA = NCCOCCOCC(=O)O
# Target: T1, human APJ receptor (Homo sapiens, UniProt P35414)
# T1 construct: expressed in transfected cells
# T1 sequence (P35414 1-380): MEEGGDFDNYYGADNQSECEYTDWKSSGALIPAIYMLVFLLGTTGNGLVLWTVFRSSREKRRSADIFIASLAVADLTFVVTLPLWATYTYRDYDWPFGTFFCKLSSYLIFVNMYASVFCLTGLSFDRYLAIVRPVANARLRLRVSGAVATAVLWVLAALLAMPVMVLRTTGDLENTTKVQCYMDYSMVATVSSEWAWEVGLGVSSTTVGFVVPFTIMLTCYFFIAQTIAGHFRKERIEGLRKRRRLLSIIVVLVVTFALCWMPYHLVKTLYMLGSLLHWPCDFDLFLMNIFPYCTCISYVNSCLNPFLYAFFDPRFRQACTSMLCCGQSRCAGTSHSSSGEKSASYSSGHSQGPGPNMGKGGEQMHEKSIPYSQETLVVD
# Assay: [35S] GTPγS assay, human APJ receptor
# Format: biochemical
# Method: The membranes were incubated with modified peptides in the assay buffer. […] Bound [^35S] GTPγS was separated from free radiolabel by filtration. The filter bound radioactivity was determined by liquid scintillation counting.
EC50 (human APJ receptor),EC50,SMILES
1.25 nM,–,CCCCCCCCCCCCCCCC(=O)N[C@@H](CCC(=O)NCCOCCOCC(=O)NCCOCCOCC(=O)N[C@H](CCC(N)=O)C(=O)N[C@@H](CCCNC(=N)N)C(=O)N1CCC[C@H]1C(=O)N(C)[C@@H](CCCNC(=N)N)C(=O)N[C@@H](CC1CCCCC1)C(=O)N[C@@H](CO)C(=O)N[C@@H](Cc1c[nH]cn1)C(=O)N[C@@H](CCCCN)C(=O)NCC(=O)N1[C@H](C(=O)N[C@@H](CCCC)C(=O)N2CCCC[C@H]2C(=O)N[C@@](C)(Cc2ccccc2)C(=O)O)C[C@@H]2CCCC[C@@H]21)C(=O)O [compound 609] ({Palmitoyl-γGlu-AEEA-AEEA}-[dQ]RP[NMeR][Cha]SHKG[Oic][Nle][Pip][αMeF]-OH)
0.44 nM,–,CCCCCCCCCCCCCCCC(=O)N[C@@H](CCC(=O)NCCOCCOCC(=O)NCCOCCOCC(=O)N[C@H](CCC(N)=O)C(=O)N[C@@H](CCCNC(=N)N)C(=O)N1CCC[C@H]1C(=O)N(C)[C@@H](CCCNC(=N)N)C(=O)N[C@@H](CC1CCCCC1)C(=O)N[C@@H](CO)C(=O)N[C@@H](Cc1c[nH]cn1)C(=O)N[C@@H](CCCCN)C(=O)NCC(=O)N1CCCC[C@H]1C(=O)N[C@@H](CCCC)C(=O)N1CCC[C@H]1C(=O)N1Cc2ccccc2C[C@@H]1C(=O)O)C(=O)O [compound 599] ({Palmitoyl-γGlu-AEEA-AEEA}-[dQ]RP[NMeR][Cha]SHKG[Pip][Nle]P[dTic]-OH)
11.8 nM,–,CCCCCCCCCCCCCCCC(=O)N[C@@H](CCC(=O)NCCOCCOCC(=O)NCCOCCOCC(=O)N[C@H](CCC(N)=O)C(=O)N[C@@H](CCCNC(=N)N)C(=O)N1CCC[C@H]1C(=O)N(C)[C@@H](CCCNC(=N)N)C(=O)N[C@@H](CC1CCCCC1)C(=O)N[C@@H](CO)C(=O)N[C@@H](Cc1c[nH]cn1)C(=O)N[C@@H](Cc1ccc(F)cc1)C(=O)NCC(=O)N1[C@H](C(=O)N[C@@H](CCCC)C(=O)N2CCC[C@H]2CC(=O)N[C@@H](CC(=O)O)Cc2ccccc2)C[C@@H]2CCCC[C@@H]21)C(=O)O [compound 622] ({Palmitoyl-γGlu-AEEA-AEEA}-[dQ]RP[NMeR][Cha]SH[Phe(4-F)]G[Oic][Nle][β3hP][d(β3hF)]-OH)
3.38 nM,–,CC(C)C[C@@H](C(=O)N[C@@H](CO)C(=O)N[C@@H](Cc1c[nH]cn1)C(=O)N[C@@H](CCCCN)C(=O)NCC(=O)N1[C@H](C(=O)N[C@@H](Cc2ccc(I)cc2)C(=O)N2CCC[C@H]2C(=O)N[C@H](Cc2ccc(-c3ccccc3)cc2)C(=O)O)C[C@@H]2CCCC[C@@H]21)N(C)C(=O)[C@@H](CCCNC(=N)N)NC(=O)[C@@H]1CCCN1C(=O)[C@H](CCCCNC(=N)N)NC(=O)[C@H](CCC(N)=O)NC(=O)[C@@H](CCCNC(=N)N)NC(=O)[C@H](CCCCNC(=N)N)NC(=O)COCCOCCNC(=O)COCCOCCNC(=O)CC[C@H](NC(=O)CCCCCCCCC(=O)O)C(=O)O [compound 291]
0.165 nM,–,CCCCCCCCCCCCCCCC(=O)N[C@@H](CCC(=O)NCCOCCOCC(=O)NCCOCCOCC(=O)N[C@H](CCC(N)=O)C(=O)N[C@@H](CCCNC(=N)N)C(=O)N1CCC[C@H]1C(=O)N(C)[C@@H](CCCNC(=N)N)C(=O)N[C@@](C)(CC(C)C)C(=O)N[C@@H](CO)C(=O)N[C@@H](Cc1c[nH]cn1)C(=O)N[C@@H](CCCN)C(=O)NCC(=O)N1[C@H](C(=O)N[C@@H](CCCC)C(=O)N2CCC[C@H]2CC(=O)N[C@@H](Cc2ccc(Cl)cc2)C(=O)O)C[C@@H]2CCCC[C@@H]21)C(=O)O [compound 634] ({Palmitoyl-γGlu-AEEA-AEEA}-[dQ]RP[NMeR][αMeL]SH[Orn]G[Oic][Nle][β3hP][Phe(4-Cl)]-OH)
–,0.176 nM,CCCC[C@H](NC(=O)[C@@H]1C[C@@H]2CCCC[C@@H]2N1C(=O)CNC(=O)[C@H](CCCCN)NC(=O)[C@H](Cc1c[nH]cn1)NC(=O)[C@H](CO)NC(=O)[C@H](CC1CCCCC1)NC(=O)[C@H](CCCNC(=N)N)N(C)C(=O)[C@@H]1CCCN1C(=O)[C@H](CCCCNC(=N)N)NC(=O)[C@H](CCC(N)=O)NC(=O)[C@H](CCCCNC(=N)N)NC(=O)[C@H](CCCCNC(=N)N)NC(C)=O)C(=O)N1CCC[C@H]1C(=O)N[C@@H](Cc1ccc(Cl)cc1)C(=O)O [compound 56] (Ac-[hArg][hArg]Q[hArg]P[NMeR][Cha]SHKG[Oic][Nle]P[Phe(4-Cl)]-OH)
